A word on the melting point: it is the temperature, or range, at which the solid turns liquid. As to `CCn1cnc2c(Nc3cccc(C(F)(F)F)c3)nc(NCCN)nc21` [Example 95, 2-(2-amino-ethyl-amino)-9-ethyl-6-(3-trifluoromethyl-phenyl-amino)-9H-purine], the melting point was over 250 °C.
As to `CC(C)n1cnc2c(Nc3ccc(F)cc3)nc(NCCO)nc21` [Example 96, 6-(4-fluoro-phenyl-amino)-2-(2-hydroxy-ethyl-amino)-9-isopropyl-9H-purine], the melting point is 139 °C.
In turn, `CCn1cnc2c(Nc3ccc(F)cc3)nc(NCCO)nc21` [Example 99, 9-ethyl-6-(4-fluoro-phenyl-amino)-2-(2-hydroxy-ethyl-amino)-9H-purine] yielded a melting point of 152 °C.
With `COc1cccc(Nc2nc(NCCN)nc3c2ncn3C(C)C)c1` [Example 101, 2-(2-amino-ethyl-amino)-9-isopropyl-6-(3-methoxy-phenyl-amino)-9H-purine] the figure was 181 °C; with `CCn1cnc2c(Nc3ccc(C(F)(F)F)cc3)nc(NCCO)nc21` [Example 104, 9-Ethyl-2-(2-hydroxy-ethyl-amino)-6-(4-trifluoromethyl-phenyl-amino)-9H-purine], 191 to 192 °C; with `CCn1cnc2c(Nc3cc(C(F)(F)F)cc(C(F)(F)F)c3)nc(NCCO)nc21` [Example 105, 9-ethyl-2-(2-hydroxy-ethyl-amino)-6-(3,5-di-trifluoromethyl-phenyl-amino)-9H-purine], 202 °C.
Consider `CCn1cnc2c(Nc3ccc(Cl)c(C(F)(F)F)c3)nc(NCCO)nc21` [Example 106, 6-(4-chloro-3-trifluoromethyl-phenyl-amino)-9-ethyl-2-(2-hydroxy-ethyl-amino)-9H-purine], for which the melting point worked out at 194 °C.
As to `CCn1cnc2c(Nc3ccc(NC(=O)OCc4ccccc4)cc3)nc(NCCO)nc21` [Example 107, 6-(4-benzyloxycarbonylamino-phenyl-amino)-9-ethyl-2-(2-hydroxy-ethyl-amino)-9H-purine], the melting point is 148 °C.
For `CCn1cnc2c(Nc3ccc(N)cc3)nc(NCCO)nc21` [Example 108, 6-(4-amino-phenyl-amino)-9-ethyl-2-(2-hydroxy-ethyl-amino)-9H-purine], the melting point is 210 °C.
